In patent publication US9375000B2, “Pesticidal arylpyrrolidines” (Bayer Intellectual Property GmbH, priority 2011, dated 2016):

How the values were obtained:
[1] = tested on: Larvae of Spodoptera litura; test: Larvae of Spodoptera litura, method using artificial feeds; type: in vivo; settings: artificial feed, after 7 days
Method: (§1) Unless not mentioned otherwise, the test solutions were prepared as follows:
(§2) Solvent: 3 parts by weight Dimethylformamide
(§3) Emulsifier: 1 part by weight Polyoxyethylene alkyl phenyl ether
(§4) In order to make an appropriate formulation of an active compound, 1 part by weight of the active compound is mixed with the above mentioned amount of solvent and emulsifier and the mixture is diluted with water to a prescribed concentration. Ammonium salt or ammonium salt and penetration enhancer in a dosage of 1000 ppm are added to the desired concentration if necessary.
[A Method Using Artificial Feeds (Trade Name: Insecta LFM, Manufactured by Nosan Corporation)]
Powdery artificial feeds (2.3 g) were added to a plastic cup (diameter: 7.5 cm, height: 4 cm) to achieve a certain thickness. Water-diluted liquid (5 ml) of the active compound prepared above having predetermined concentration was evenly poured thereto and allowed to stand until the feeds were solidified. Five of the 3rd-instar larvae of Spodoptera litura were released in respective cups, and covered. The cups were put in a temperature controlled room at 25° C. and humidity of 50 to 60%, and the number of dead larvae after 7 days was determined to calculate the pesticidal ratio. 100% pesticidal ratio means death of all the larvae, while 0% pesticidal ratio means no dead larvae.

[2] = tested on: Cucurbit Leaf Beetle (Aulacophora femoralis); test: Cucurbit leaf beetle (Aulacophora femoralis) cucumber leaf dip test; type: in vivo; settings: after 7 days; for pest or weed control at 20 ppm: Aulacophora, foliar, 168 h, read-out: insecticidal activity
Method: as §1, §2, §3, §4
Leaves of cucumber were immersed in the test solution at the appropriate concentration, and the leaves were dried in air. The leaves were then put in a plastic cup containing sterilized black soil and five Aulacophora femoralis at second instar larvae were released in the cup. The cups were placed in a temperature-controlled chamber at 25° C. After 7 days, the number of dead larvae was counted, and thus the insecticidal activity was calculated. An insecticidal activity of 100% means that all larvae were killed, whereas an insecticidal activity of 0% means that no larva was killed.

[3] = active compound concentration 20 ppm
[4] = active compound concentration 4 ppm
[5] = active compound concentration 100 ppm

With `O=C(NCc1ccc(N2CC(c3cc(Cl)cc(Cl)c3)(C(F)(F)F)CC2=O)nc1C(F)(F)F)C1CC1` (centres unmarked) [C3-5] as the compound, how does the “insecticidal activity (pesticidal ratio)” value [1, 3] read?
The value was 100%.

How did the pest or weed control at 20 ppm ([1]; Spodoptera litura, 168 h, active compound concentration 20 ppm, read-out: insecticidal activity (pesticidal ratio)) turn out when `CCC(=O)NCc1ccc(N2CC(c3cc(C(F)(F)F)cc(C(F)(F)F)c3)(C(F)(F)F)CC2O)nc1C(F)(F)F` (centres unmarked) [A′3-24, N-{[6-{4-[3,5-bis(trifluoromethyl)phenyl]-2-hydroxy-4-(trifluoromethyl)pyrrolidin-1-yl}-2-(trifluoromethyl)pyridin-3-yl]methyl}propanamide] was run?
The pest or weed control at 20 ppm was 100%.

And the pest or weed control at 20 ppm [2, 3]?
Its pest or weed control at 20 ppm is 100%.

`CCC(=O)NCc1ccc(N2CCC(c3cc(C(F)(F)F)cc(C(F)(F)F)c3)(C(F)(F)F)C2O)cc1` (centres unmarked) [A1-395] was tested. Which “insecticidal activity (pesticidal ratio)” value [1, 3] did it give?
Its value is 100%.

And the insecticidal activity [2, 3]?
The insecticidal activity was 100%.

Which results are given for `CCC(=O)NCc1ccc(N2CCC(c3cc(C(F)(F)F)cc(C(F)(F)F)c3)(C(F)(F)F)C2=O)cc1` (centres unmarked) [B1-96]?
insecticidal activity (pesticidal ratio) [1, 3]: 100%; insecticidal activity [2, 3]: 100%

`O=C(NCc1ccc(N2CCC(c3cc(Br)cc(Br)c3)(C(F)(F)F)C2O)nc1C(F)(F)F)C1CC1` (mixture of isomers) [A3-181] was tested. Which “insecticidal activity (pesticidal ratio)” value [1, 3] did it give?
The value was 100%.

What about the insecticidal activity [2, 3] of the same compound?
Its insecticidal activity is 100%.

With `CCC(=O)NCc1ccc(N2CC(c3cc(Cl)c(Cl)c(Cl)c3)(C(F)(F)F)CC2=O)nc1C` (centres unmarked) [C1-74] as the compound, how does the “insecticidal activity (pesticidal ratio)” value [1, 3] read?
Its value is 100%.

Which “insecticidal activity (pesticidal ratio)” value [1, 4] does the source give for `C=C(C)N(Cc1ccc(N2CCC(c3cc(Cl)c(Cl)c(Cl)c3)(C(F)(F)F)C2O)nc1C(F)(F)F)C(=O)C1CC1` (centres unmarked) [A3-424] here?
The value was 100%.

And the insecticidal activity [2, 4]?
Its insecticidal activity is 100%.

`CC(C)(C)OC(=O)NCc1ccc(N2CCC(c3cc(C(F)(F)F)cc(C(F)(F)F)c3)(C(F)(F)F)C2O)cc1Cl` (centres unmarked) [A1-69, tert-butyl (4-{3-[3,5-bis(trifluoromethyl)phenyl]-2-hydroxy-3-(trifluoro-methyl)pyrrolidin-1-yl}-2-chlorobenzyl)carbamate] was tested. Which pest or weed control at 20 ppm [2, 3] did it give?
Its pest or weed control at 20 ppm is 100%.

Which results are given for `O=C(NCc1cc(F)c(N2CCC(c3cc(Cl)c(Cl)c(Cl)c3)(C(F)(F)F)C2O)nc1Cl)C1CC1` (centres unmarked) [A3-370]?
insecticidal activity (pesticidal ratio) [1, 4]: 100%; insecticidal activity [2, 4]: 100%

Which insecticidal activity [2, 3] does the source give for `CC(=O)NCc1ccc(N2CCC(c3cccc(C(F)(F)F)c3)(C(F)(F)F)C2O)nc1C(F)(F)F` (racemic) [A3-221] here?
Its insecticidal activity is 100%.

With `CCC(=O)NCc1ccc(N2CCC(c3cc(Cl)cc(Cl)c3)(C(F)(F)F)C2O)nc1C(F)(F)F` (centres unmarked) [A3-2] as the compound, how does the “insecticidal activity (pesticidal ratio)” value [1, 3] read?
Its value is 100%.

What about the insecticidal activity [2, 3] of the same compound?
Its insecticidal activity is 100%.

How did the “insecticidal activity (pesticidal ratio)” value [1, 5] turn out when `O=C(NCc1cnc(N2CCC(c3cc(Cl)cc(Cl)c3)(C(F)(F)F)C2O)nc1C(F)(F)F)C1CCCN1` (centres unmarked) [A4-202] was run?
Its value is 100%.

With `CCC(=O)NCc1ccc(N2CCC(c3cc(Cl)cc(Cl)c3)(C(F)(F)F)C2O)cc1` (centres unmarked) [A1-373] as the compound, how does the “insecticidal activity (pesticidal ratio)” value [1, 3] read?
The value was 100%.

And the insecticidal activity [2, 3]?
The insecticidal activity was 100%.

What does the source list for `CC(=O)NCc1ccc(N2CCC(c3cc(C(F)(F)F)cc(C(F)(F)F)c3)(C(F)(F)F)C2O)nc1Br` (centres unmarked) [A3-155]?
insecticidal activity (pesticidal ratio) [1, 4]: 100%; insecticidal activity (pesticidal ratio) [1, 3]: 100%; insecticidal activity [2, 4]: 100%; insecticidal activity [2, 3]: 100%

With `CCC(=O)NCc1ccc(N2CC(c3cc(Cl)cc(Cl)c3)(C(F)(F)F)CC2=O)nc1C(F)(F)F` (centres unmarked) [C3-2] as the compound, how does the “insecticidal activity (pesticidal ratio)” value [1, 3] read?
The value was 100%.

With `O=C(NCc1cc(F)c(N2CCC(c3cc(Cl)c(Cl)c(Cl)c3)(C(F)(F)F)C2O)cc1Cl)C1CC1` (centres unmarked) [A1-481] as the compound, how does the “insecticidal activity (pesticidal ratio)” value [1, 4] read?
Its value is 100%.

And the insecticidal activity [2, 4]?
Its insecticidal activity is 100%.

Which “insecticidal activity (pesticidal ratio)” value [1, 4] does the source give for `Cc1nc(N2CCC(c3cc(C(F)(F)F)cc(C(F)(F)F)c3)(C(F)(F)F)C2O)ccc1CNC(=O)CS(C)(=O)=O` (centres unmarked) [A3-132] here?
The value was 100%.

And the “insecticidal activity (pesticidal ratio)” value [1, 3]?
The value was 100%.

Which results are given for `CC(=O)NCc1ccc(N2CCC(c3cc(Cl)cc(Cl)c3)(C(F)(F)F)C2O)cc1C(F)(F)F` (centres unmarked) [A1-34]?
insecticidal activity (pesticidal ratio) [1, 3]: 100%; insecticidal activity [2, 3]: 100%

`N#Cc1ccc(N2CCC(c3cc(Cl)c(F)c(Cl)c3F)(C(F)(F)F)C2O)cc1C(F)(F)F` (centres unmarked) [a1-48, 4-[3-(3,5-dichloro-2,4-difluorophenyl)-2-hydroxy-3-(trifluoromethyl)-pyrrolidin-1-yl]-2-(trifluoromethyl)benzonitrile] was tested. Which pest or weed control at 20 ppm [2, 3] did it give?
Its pest or weed control at 20 ppm is 100%.

With `O=C(NCc1cnc(N2CCC(c3cc(C(F)(F)F)cc(C(F)(F)F)c3)(C(F)(F)F)C2O)nc1Cl)C1CC1` (centres unmarked) [A4-252] as the compound, how does the “insecticidal activity (pesticidal ratio)” value [1, 4] read?
The value was 100%.

And the insecticidal activity [2, 4]?
The insecticidal activity was 100%.

How did the “insecticidal activity (pesticidal ratio)” value [1, 4] turn out when `CC(=O)NCc1ccc(N2CCC(c3cc(C(F)(F)F)cc(C(F)(F)F)c3)(C(F)(F)F)C2O)nc1C` (centres unmarked) [A3-122] was run?
The value was 100%.

What about the “insecticidal activity (pesticidal ratio)” value [1, 3] of the same compound?
The value was 100%.

What does the source list for `CC(=O)NCc1cc(F)c(N2CCC(c3cc(C(F)(F)F)cc(C(F)(F)F)c3)(C(F)(F)F)C2O)nc1Cl` (centres unmarked) [A3-377]?
insecticidal activity (pesticidal ratio) [1, 4]: 100%; insecticidal activity [2, 4]: 100%

For `CCCC(=O)NCc1ccc(N2CCC(c3cc(Cl)c(Cl)c(Cl)c3)(C(F)(F)F)C2O)cc1C(F)(F)F` (centres unmarked) [a1-47], which “insecticidal activity (pesticidal ratio)” value [1, 3] is on record?
Its value is 100%.

`Cc1c(CNC(=O)C2CC2)ccc(N2CCC(c3cc(Cl)c(Cl)c(Cl)c3)(C(F)(F)F)C2O)c1F` (centres unmarked) [A1-493] was tested. Which “insecticidal activity (pesticidal ratio)” value [1, 4] did it give?
The value was 100%.

What about the insecticidal activity [2, 4] of the same compound?
The insecticidal activity was 100%.

What does the source list for `O=C(NCc1cc(F)c(N2CCC(c3cc(Cl)c(Cl)c(Cl)c3)(C(F)(F)F)C2O)cc1F)C1CC1` (centres unmarked) [A1-457]?
insecticidal activity (pesticidal ratio) [1, 4]: 100%; insecticidal activity [2, 4]: 100%

How did the “insecticidal activity (pesticidal ratio)” value [1, 4] turn out when `CC(=O)NCc1cc(F)c(N2CCC(c3cc(Cl)c(Cl)c(Cl)c3)(C(F)(F)F)C2O)cc1F` (centres unmarked) [A1-453] was run?
The value was 80%.

`CCC(=O)NCc1ccc(N2CCC(c3cc(Br)cc(Br)c3)(C(F)(F)F)C2O)nc1C(F)(F)F` (mixture of isomers) [A3-178] was tested. Which “insecticidal activity (pesticidal ratio)” value [1, 3] did it give?
The value was 100%.

What about the insecticidal activity [2, 3] of the same compound?
Its insecticidal activity is 100%.

`CN(C)CC(=O)NCc1cnc(N2CCC(c3cc(Cl)cc(Cl)c3)(C(F)(F)F)C2O)nc1C(F)(F)F` (centres unmarked) [A4-201] was tested. Which “insecticidal activity (pesticidal ratio)” value [1, 5] did it give?
The value was 100%.

Which “insecticidal activity (pesticidal ratio)” value [1, 5] does the source give for `CC(C)(C)OC(=O)NCc1ccc(N2CCC(c3cc(C(F)(F)F)cc(C(F)(F)F)c3)(C(F)(F)F)C2O)cc1C(F)(F)F` (mixture of isomers) [A1-72] here?
Its value is 100%.

And the insecticidal activity [2, 5]?
Its insecticidal activity is 100%.

With `CC(=O)NCc1ccc(N2CCC(c3cc(C(F)(F)F)cc(C(F)(F)F)c3)(C(F)(F)F)C2O)cc1C` (mixture of isomers) [A1-183] as the compound, how does the “insecticidal activity (pesticidal ratio)” value [1, 3] read?
The value was 100%.

And the insecticidal activity [2, 3]?
Its insecticidal activity is 100%.

Which “insecticidal activity (pesticidal ratio)” value [1, 4] does the source give for `CCC(=O)NCc1ccc(N2CCC(c3cc(Cl)c(F)c(Cl)c3F)(C(F)(F)F)C2O)nc1Br` (centres unmarked) [A3-323] here?
Its value is 100%.

And the insecticidal activity [2, 4]?
The insecticidal activity was 100%.

What does the source list for `Cc1nc(N2CCC(c3cc(C(F)(F)F)cc(C(F)(F)F)c3)(C(F)(F)F)C2O)ccc1CNC(=O)C1CC1` (centres unmarked) [A3-126]?
insecticidal activity (pesticidal ratio) [1, 3]: 100%; insecticidal activity [2, 3]: 100%

With `CC(C)(C)OC(=O)N1CCCC1C(=O)NCc1cnc(N2CCC(c3cc(Cl)cc(Cl)c3)(C(F)(F)F)C2O)nc1C(F)(F)F` (centres unmarked) [A4-203] as the compound, how does the “insecticidal activity (pesticidal ratio)” value [1, 5] read?
Its value is 80%.

With `CCC(=O)NCc1ccc(N2CCC(c3cc(C(F)(F)F)cc(C(F)(F)F)c3)(C(F)(F)F)C2O)nc1Br` (centres unmarked) [A3-156] as the compound, how does the “insecticidal activity (pesticidal ratio)” value [1, 3] read?
Its value is 100%.

What about the insecticidal activity [2, 3] of the same compound?
Its insecticidal activity is 100%.
